{
  "source": "patent US9757408B2",
  "about": "(Hayashibara Co., Ltd., priority 2010, dated 2017)",
  "key": {"[1]": {"system": "IL-6 production from mouse intraperitoneal macrophages", "experiment": "IC50 for IL-6 production from mouse macrophages, LPS + IFN-γ (Experiment 19)", "format": "cell-based", "details": "for IC50 Concentration IL-6 / IC50: mouse macrophages, LPS and IFN-γ, 20 hours; for IC50: read-out: IC50 Concentration IL-6; for inhibition of the production of IL-6 (in words): mouse intraperitoneal macrophages stimulated with LPS and IFN-γ", "source_text": "(§1) After completion of the culture, the supernatant in each well was collected and assayed for cytokines and prostaglandin E2 (called “PGE2”, hereinafter) with ELISA."}, "[2]": {"system": "TNF-α production from mouse intraperitoneal macrophages", "experiment": "IC50 for TNF-α production from mouse macrophages, LPS + IFN-γ, nucleic acid derivatives (Experiment 19)", "format": "cell-based", "details": "for IC50 / IC50 Concentration TNF-α: mouse macrophages, LPS and IFN-γ, 20 hours; for IC50: read-out: IC50 Concentration TNF-α; for inhibitory action on the production of inflammatory cytokines (in words): mouse intraperitoneal macrophages stimulated with LPS and IFN-γ", "source_text": "as §1"}, "[3]": {"system": "IL-12 production from mouse intraperitoneal macrophages", "experiment": "IC50 for IL-12 production from mouse macrophages, LPS + IFN-γ (Experiment 19)", "format": "cell-based", "details": "mouse macrophages, LPS and IFN-γ, 20 hours; read-out: IC50 Concentration IL-12", "source_text": "as §1"}, "[4]": {"system": "PGE2 production from mouse intraperitoneal macrophages", "experiment": "IC50 for PGE2 production from mouse macrophages, LPS + IFN-γ (Experiment 19)", "format": "cell-based", "details": "mouse macrophages, LPS and IFN-γ, 20 hours; read-out: IC50 Concentration PGE2", "source_text": "as §1"}, "BALB/c mice [5]": {"system": "BALB/c mice", "experiment": "Acute toxicity test, intraperitoneal (Experiment 20)", "details": "BALB/c mice, intraperitoneal", "method": "As a control, only PBS was intraperitoneally administered to 10 BALB/c mice (6-week-old, female, average weight of 20 g, commercialized by Charles River Laboratories Japan Inc., Tokyo, Japan) at a dose of 1 mL/head, followed by observing the course of the mice for 24 hours."}, "BALB/c mice [6]": {"system": "BALB/c mice", "experiment": "Safeness of injection preparations, i.v. once a day for seven days (Example 2)", "format": "in vivo", "details": "BALB/c mice", "method": "The safeness of the preparations prepared in the above was evaluated."}},
  "note": "Like-named read-outs stand apart in the source and are kept apart here.",
  "data": [
    {"smiles": "Nc1nc2c([nH]c(=O)n2[C@H]2C[C@H](O)[C@@H](CO)O2)c(=O)[nH]1", "note": "[8-OH-deoxyguanine]", "values": [
      {"measurement": "IC50 Concentration IL-6", "setting": "[1]", "result": "Enhanced"},
      {"measurement": "IC50", "setting": "[2]", "result": "> 200", "unit": "µM"}
    ]},
    {"smiles": "Nc1nc2c(nc(O)n2[C@@H]2O[C@H](CO)[C@@H](O)[C@H]2O)c(=O)[nH]1", "note": "[8-OH-guanosine]", "values": [
      {"measurement": "IC50 Concentration IL-6", "setting": "[1]", "result": "Enhanced"},
      {"measurement": "IC50", "setting": "[2]", "result": "> 200", "unit": "µM"}
    ]},
    {"smiles": "CC1(C)[C@@H](O)CC[C@]2(C)[C@H]3C(=O)C=C4[C@@H]5C[C@@](C)(C(=O)O)CC[C@]5(C)CC[C@@]4(C)[C@]3(C)CC[C@@H]12", "note": "[18β-glycyrrhetinate]", "values": [
      {"measurement": "IC50", "setting": "[1]", "result": 87.3, "unit": "µM"},
      {"measurement": "IC50", "setting": "[3]", "result": "> 200", "unit": "µM"},
      {"measurement": "IC50", "setting": "[4]", "result": "> 200", "unit": "µM"},
      {"measurement": "IC50", "setting": "[2]", "result": 50.2, "unit": "µM"}
    ]},
    {"smiles": "CNC(=O)[C@H]1O[C@@H](n2cnc3c(NCc4cccc(I)c4)ncnc32)[C@H](O)[C@@H]1O", "note": "[IB-MECA, 1-deoxy-1-[6-[[(3-iodophenyl-)methyl]amino]-9H-purin-9-yl]-N-methyl-β-D-ribofuranuronamide]", "values": [
      {"measurement": "inhibition of the production of IL-6 (in words)", "setting": "[1]", "result": "no inhibition"},
      {"measurement": "IC50 Concentration IL-6", "setting": "[1]", "result": "Not inhibited"},
      {"measurement": "IC50", "setting": "[3]", "result": 4.5, "unit": "µM"},
      {"measurement": "IC50", "setting": "[2]", "result": 0.4, "unit": "µM"}
    ]},
    {"smiles": "Nc1c2[nH]cnc2nc[n+]1[O-]", "note": "[adenine N1-oxide]", "values": [
      {"measurement": "IC50", "setting": "[1]; Macrophage", "result": "> 200", "unit": "µM"},
      {"measurement": "IC50", "setting": "[2]; Macrophage", "result": 137, "unit": "µM"},
      {"measurement": "inhibitory action on the production of inflammatory cytokines (in words)", "setting": "[2]", "result": "only a weak inhibitory action"}
    ]},
    {"smiles": "Nc1ncnc2nc[nH]c12", "note": "[adenine]", "values": [
      {"measurement": "IC50", "setting": "[1]; Macrophage", "result": "> 200", "unit": "µM"},
      {"measurement": "IC50", "setting": "[2]; Macrophage", "result": 85.2, "unit": "µM"},
      {"measurement": "inhibitory action on the production of inflammatory cytokines (in words)", "setting": "[2]", "result": "only a weak inhibitory action"}
    ]},
    {"smiles": "Nc1ncnc2c1ncn2[C@@H]1O[C@H](COP(=O)(O)O)[C@@H](O)[C@H]1O", "note": "[adenosine 5′-monophosphate]", "values": [
      {"measurement": "IC50 Concentration IL-6", "setting": "[1]", "result": "Not inhibited"},
      {"measurement": "IC50", "setting": "[2]; Macrophage", "result": 32.1, "unit": "µM"},
      {"measurement": "inhibitory action on the production of inflammatory cytokines (in words)", "setting": "[2]", "result": "only a weak inhibitory action"}
    ]},
    {"smiles": "Nc1c2ncn([C@@H]3O[C@H](COP(=O)(O)O)[C@@H](O)[C@H]3O)c2nc[n+]1[O-]", "note": "[adenosine N1-oxide 5′-monophosphate]", "values": [
      {"measurement": "clinical laboratory test results that provide indices of renal and liver functions, versus control", "setting": "BALB/c mice [5]; blood and urine at 24 hours", "result": "no difference"},
      {"measurement": "change in appearance after administration", "setting": "BALB/c mice [5]; observed 24 hours", "result": "no change in appearance"},
      {"measurement": "inhibition of the production of IL-6 (in words)", "setting": "[1]", "result": "strongly inhibited"},
      {"measurement": "IC50", "setting": "[1]", "result": 10.2, "unit": "µM"},
      {"measurement": "change in body weight and other appearance versus PBS", "setting": "BALB/c mice [6]; i.v. 0.3 mL/head once a day for seven days, followed two weeks", "result": "no significant change"},
      {"measurement": "clinical laboratory test results that provide indices of renal and liver functions versus PBS", "setting": "BALB/c mice [6]; i.v. once a day for seven days, two weeks after initiating", "result": "no difference"},
      {"measurement": "IC50", "setting": "[3]", "result": "> 200", "unit": "µM"},
      {"measurement": "IC50", "setting": "[2]", "result": 0.9, "unit": "µM"}
    ]},
    {"smiles": "CC1(C)[C@@H](O[C@H]2O[C@H](C(=O)O)[C@@H](O)[C@H](O)[C@H]2O[C@@H]2O[C@H](C(=O)O)[C@@H](O)[C@H](O)[C@H]2O)CC[C@]2(C)[C@H]3C(=O)C=C4[C@@H]5C[C@@](C)(C(=O)O)CC[C@]5(C)CC[C@@]4(C)[C@]3(C)CC[C@@H]12", "note": "[dipotassium glycyrrhizinate]", "values": [
      {"measurement": "IC50", "setting": "[1]", "result": "> 200", "unit": "µM"},
      {"measurement": "IC50", "setting": "[3]", "result": "> 200", "unit": "µM"},
      {"measurement": "IC50", "setting": "[4]", "result": "> 200", "unit": "µM"},
      {"measurement": "IC50", "setting": "[2]", "result": "> 200", "unit": "µM"}
    ]},
    {"smiles": "Nc1nc2nc[nH]c2c(=O)[nH]1", "note": "[guanine]", "values": [
      {"measurement": "IC50 Concentration IL-6", "setting": "[1]", "result": "Not inhibited"},
      {"measurement": "IC50 Concentration TNF-α", "setting": "[2]", "result": "Not inhibited"}
    ]},
    {"smiles": "Nc1nc2c(ncn2[C@@H]2O[C@H](COP(=O)(O)O)[C@@H](O)[C@H]2O)c(=O)[nH]1", "note": "[guanosine 5′-monophosphate]", "values": [
      {"measurement": "IC50 Concentration IL-6", "setting": "[1]", "result": "Not inhibited"},
      {"measurement": "IC50 Concentration TNF-α", "setting": "[2]", "result": "Not inhibited"}
    ]},
    {"smiles": "Nc1nc2c(ncn2[C@@H]2O[C@H](CO)[C@@H](O)[C@H]2O)c(=O)[nH]1", "note": "[guanosine]", "values": [
      {"measurement": "IC50 Concentration IL-6", "setting": "[1]", "result": "Not inhibited"},
      {"measurement": "IC50 Concentration TNF-α", "setting": "[2]", "result": "Not inhibited"}
    ]}
  ]
}
